Experimental data as given in publication PMC11984586, “A novel spider toxin as a selective antagonist of the Kv1 subfamily of voltage-gated potassium channels through gating modulation” (The Journal of Biological Chemistry, 2025).
Bridge positions count the residues as written; N and C are the ends. Peptide text beside a SMILES is read from it.

Tests used:
[1] = test system: Kv1.3/Kv1.4 S3-S4 chimeric channel; assay: Whole-cell patch clamp, chimeric channel; assay type: cell-based, human/rat; conditions: +30 mV, mean ± SD, n = 5-6
From the text: To investigate the structural determinants underlying the differential regulatory effects of MrVIII on Kv1 channels, we employed a chimeric channel strategy. Using Kv1.3 as the template, the S1-S2, S3-S4, and S5-S6 transmembrane helices and their respective linkers from Kv1.1 were inserted to generate chimeras, generating the Kv1.3/1.1 S1-S2, Kv1.3/1.1 S3-S4, and Kv1.3/1.1 S5-S6 chimeric channels. […] These findings indicate that the S3-S4 is the key determinant for the differential inhibition of Kv1.1 and Kv1.3 by MrVIII. To further validate this conclusion, we constructed a reverse chimeric channel using Kv1.1 as the template, inserting the corresponding regions from Kv1.3 into Kv1.1. […] This finding more directly illustrates the exchange of the channel's voltage-dependence phenotype in toxin inhibition by swapping this S3-S4 between Kv1.1 and Kv1.3. […] In addition to confirming the differential role of S3-S4 between Kv1.1 and Kv1.3, we also substituted the S3-S4 of Kv1.4 and Kv1.7 into Kv1.3 to analyze MrVIII's inhibition profile. […]
(§1) CHO-K1 cells were selected for expressing Kv channels due to their lack of endogenous Kv channels, while HEK293 or ND7/23 cells were used for Nav and Cav channel expression. […] After 4 to 6 h transfection, cells were seeded onto poly-lysine–coated coverslips, and 24 to 36 h later, transfected cells were ready for patch-clamp analysis. […]

[2] = target: T1, Kv1.1/QM (Kv1.1/E283Q_T286M) (Homo sapiens, UniProt Q09470, E283Q/T286M); assay: Whole-cell patch clamp, Kv1.1 double mutant; assay type: cell-based; conditions: +30 mV, mean ± SD, n = 3–5, read-out: IC50, Kv1.1/QM current (full inhibition)
T1 construct: expressed in transfected cells; host or cells: CHO-K1
T1 sequence (Q09470 whole entry E283Q/T286M): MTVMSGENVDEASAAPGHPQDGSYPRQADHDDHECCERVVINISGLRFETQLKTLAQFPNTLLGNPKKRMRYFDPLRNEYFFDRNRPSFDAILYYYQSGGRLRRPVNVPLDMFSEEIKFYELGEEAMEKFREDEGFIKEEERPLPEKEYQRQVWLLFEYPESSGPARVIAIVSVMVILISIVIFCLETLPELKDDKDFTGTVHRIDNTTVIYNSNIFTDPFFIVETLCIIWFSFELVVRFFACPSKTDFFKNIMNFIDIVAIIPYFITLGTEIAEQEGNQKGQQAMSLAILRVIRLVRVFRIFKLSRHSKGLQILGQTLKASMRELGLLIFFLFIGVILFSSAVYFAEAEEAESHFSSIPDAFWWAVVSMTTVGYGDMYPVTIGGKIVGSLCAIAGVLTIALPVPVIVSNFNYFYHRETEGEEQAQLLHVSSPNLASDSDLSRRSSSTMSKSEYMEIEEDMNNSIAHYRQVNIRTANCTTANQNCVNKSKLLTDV
From the text: In contrast, differences at positions 347, 355, and 358 between Kv1.3 and Kv1.1 prompted further analysis. To explore whether these discrepancies influence peptide-mediated inhibition, we substituted these residues in Kv1.3 with their homologous counterparts in Kv1.1 and assessed the MrVIII's inhibitory efficacy on these single-point mutants. […] To further investigate this, we introduced double adjacent mutations around Q355 and M358 in Kv1.3 to explore potential synergistic effects on MrVIII's inhibitory activity. […]
as §1
For Kv current recordings, the bath solution contained (in mM) the following: 140 NaCl, 5 KCl, 1 MgCl2, 2 CaCl2, 10 glucose, and 10 Hepes (pH 7.3, adjusted with NaOH), and the pipette solution contained (in mM) the following: 140 KCl, 2.5 MgCl2, 11 EGTA, and 10 Hepes (pH 7.3, adjusted with KOH). […] Whole cell conductance (G) at each depolarizing voltage (V) was determined using the equation: G = I/(V−Vrev), where I is the current amplitude, and Vrev is the reversal potential. […]

For `CC[C@H](C)[C@@H]1NC(=O)[C@H](Cc2ccc(O)cc2)NC(=O)[C@H](CCC(N)=O)NC(=O)[C@@H]2CCCN2C(=O)[C@@H]2CSSC[C@H](NC(=O)[C@H](C)NC(=O)[C@H](CO)NC(=O)[C@H](CCC(=O)O)NC(=O)[C@H](CCC(=O)O)NC(=O)[C@@H](N)[C@@H](C)O)C(=O)NCC(=O)NCC(=O)N[C@@H](Cc3ccccc3)C(=O)N[C@@H](CC(N)=O)C(=O)N[C@@H](C)C(=O)N[C@@H](CCCNC(=N)N)C(=O)N[C@H]3CSSC[C@H](NC1=O)C(=O)N[C@@H](CCCCN)C(=O)NCC(=O)N[C@@H](Cc1c[nH]c4ccccc14)C(=O)N[C@@H](CCCNC(=N)N)C(=O)N[C@@H]([C@@H](C)O)C(=O)N[C@@H](CCCCN)C(=O)N[C@@H](CCCNC(=N)N)C(=O)N[C@H](C(=O)N[C@@H](CC(C)C)C(=O)N[C@@H](CC(N)=O)C(=O)N1CCC[C@H]1C(=O)O)CSSC[C@H](NC(=O)[C@H](CCCCN)NC(=O)[C@H](Cc1c[nH]cn1)NC(=O)[C@H](CC(C)C)NC(=O)[C@@H]1CCCN1C3=O)C(=O)N2` [MrVIII] (H-TEESACGGFNARCPLHKCCPQYICKGWRTKRCLNP-OH; disulfide 6-19, 13-24, 18-32; N-terminus and C-terminus assumed), the IC50 ([1]; current at 50 ms) was 117 ± 48.2 nM, the “inhi%(495 ms), Kv1.3/Kv1.4 S3-S4 current” value ([1]; current at 495 ms) was 37.9 ± 5.4% and the IC50 [2] was 7.7 ± 5.3 nM.
